Experimental data published in ChEMBL document CHEMBL5241065, “If small molecules immunotherapy comes, can the prime be far behind?” (Eur J Med Chem, 2021).

Legend:
[1] = Binding affinity to A2aR (unknown origin); parameters: species or system Homo sapiens
[2] = target: T1, Arginase-2, mitochondrial (Homo sapiens, UniProt P78540)
T1 sequence (P78540 whole entry): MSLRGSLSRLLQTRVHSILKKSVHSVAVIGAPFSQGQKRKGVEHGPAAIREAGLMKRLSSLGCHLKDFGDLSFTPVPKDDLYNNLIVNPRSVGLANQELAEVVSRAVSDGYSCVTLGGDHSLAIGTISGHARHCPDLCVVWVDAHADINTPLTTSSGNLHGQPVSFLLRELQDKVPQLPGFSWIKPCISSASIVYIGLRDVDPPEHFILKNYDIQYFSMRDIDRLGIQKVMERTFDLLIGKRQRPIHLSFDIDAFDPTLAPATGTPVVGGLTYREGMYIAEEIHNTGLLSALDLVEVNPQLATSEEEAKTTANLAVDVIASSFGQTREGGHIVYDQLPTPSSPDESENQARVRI

[3] = target: T2, Tyrosine-protein phosphatase non-receptor type 11 (Homo sapiens, UniProt Q06124)
T2 sequence (Q06124 whole entry): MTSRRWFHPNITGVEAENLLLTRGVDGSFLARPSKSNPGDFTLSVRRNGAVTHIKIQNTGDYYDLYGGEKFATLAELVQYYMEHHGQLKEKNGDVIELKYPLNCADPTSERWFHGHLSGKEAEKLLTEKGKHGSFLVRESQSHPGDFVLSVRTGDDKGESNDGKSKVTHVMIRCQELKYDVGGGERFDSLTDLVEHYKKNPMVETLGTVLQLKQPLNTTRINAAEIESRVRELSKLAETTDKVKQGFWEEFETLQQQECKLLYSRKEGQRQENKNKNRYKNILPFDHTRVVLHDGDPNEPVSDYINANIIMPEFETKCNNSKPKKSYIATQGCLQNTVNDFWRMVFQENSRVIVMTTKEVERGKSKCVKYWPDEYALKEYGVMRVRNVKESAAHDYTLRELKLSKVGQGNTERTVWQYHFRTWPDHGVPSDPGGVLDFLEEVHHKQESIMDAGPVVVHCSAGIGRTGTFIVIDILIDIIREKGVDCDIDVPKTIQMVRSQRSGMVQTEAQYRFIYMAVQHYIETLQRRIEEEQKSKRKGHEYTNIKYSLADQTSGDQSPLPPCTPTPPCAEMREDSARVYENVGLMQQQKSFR

[4] = target: T2, Tyrosine-protein phosphatase non-receptor type 11; remark: listed apart in the source
[5] = target: T3, Tyrosine-protein phosphatase non-receptor type 1 (Homo sapiens, UniProt P18031)
T3 sequence (P18031 whole entry): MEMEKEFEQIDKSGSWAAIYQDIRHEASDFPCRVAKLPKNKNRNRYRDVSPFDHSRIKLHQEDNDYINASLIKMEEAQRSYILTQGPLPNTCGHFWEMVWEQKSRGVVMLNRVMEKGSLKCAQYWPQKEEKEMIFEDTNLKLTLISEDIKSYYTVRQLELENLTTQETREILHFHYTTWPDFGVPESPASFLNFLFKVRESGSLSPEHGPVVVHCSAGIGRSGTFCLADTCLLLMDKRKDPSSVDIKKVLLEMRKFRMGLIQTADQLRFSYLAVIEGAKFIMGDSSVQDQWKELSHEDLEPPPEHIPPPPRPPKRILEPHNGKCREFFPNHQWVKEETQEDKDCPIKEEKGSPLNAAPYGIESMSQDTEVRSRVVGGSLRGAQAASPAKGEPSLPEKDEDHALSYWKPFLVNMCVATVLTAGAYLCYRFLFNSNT

[6] = target: Tyrosine-protein phosphatase non-receptor type 6 (Homo sapiens, UniProt P29350)
Sequence of Tyrosine-protein phosphatase non-receptor type 6 (P29350 whole entry): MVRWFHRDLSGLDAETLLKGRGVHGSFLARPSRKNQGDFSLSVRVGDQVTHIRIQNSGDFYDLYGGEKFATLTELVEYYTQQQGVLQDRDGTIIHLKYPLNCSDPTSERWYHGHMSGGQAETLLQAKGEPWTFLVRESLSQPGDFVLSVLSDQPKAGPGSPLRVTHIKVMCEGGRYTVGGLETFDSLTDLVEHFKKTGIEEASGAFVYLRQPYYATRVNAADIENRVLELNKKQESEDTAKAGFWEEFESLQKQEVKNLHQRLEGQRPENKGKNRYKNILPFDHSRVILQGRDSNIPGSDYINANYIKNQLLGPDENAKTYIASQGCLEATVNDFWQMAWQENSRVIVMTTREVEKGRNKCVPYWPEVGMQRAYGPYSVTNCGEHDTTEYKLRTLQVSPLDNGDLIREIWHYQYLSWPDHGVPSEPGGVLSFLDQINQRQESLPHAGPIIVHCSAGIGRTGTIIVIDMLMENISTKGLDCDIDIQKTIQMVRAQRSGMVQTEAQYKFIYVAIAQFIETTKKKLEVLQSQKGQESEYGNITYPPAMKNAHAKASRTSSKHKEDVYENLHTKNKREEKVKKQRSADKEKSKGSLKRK

[7] = Agonist activity at IFNalpha (unknown origin); parameters: species or system Homo sapiens
[8] = Agonist activity at TNFalpha (unknown origin); parameters: species or system Homo sapiens
[9] = target: T2, Tyrosine-protein phosphatase non-receptor type 11; remark: listed apart in the source
[10] = target: T2, Tyrosine-protein phosphatase non-receptor type 11; assay: Inhibition of SHP (unknown origin)
[11] = target: T4, Stimulator of interferon genes protein (Homo sapiens, UniProt Q86WV6); assay: Agonist activity at STING in human THP1-Dual cells assessed as increase in IFN-beta secretion incubated for 24 hrs; type: cell-based, THP-1
T4 sequence (Q86WV6 whole entry): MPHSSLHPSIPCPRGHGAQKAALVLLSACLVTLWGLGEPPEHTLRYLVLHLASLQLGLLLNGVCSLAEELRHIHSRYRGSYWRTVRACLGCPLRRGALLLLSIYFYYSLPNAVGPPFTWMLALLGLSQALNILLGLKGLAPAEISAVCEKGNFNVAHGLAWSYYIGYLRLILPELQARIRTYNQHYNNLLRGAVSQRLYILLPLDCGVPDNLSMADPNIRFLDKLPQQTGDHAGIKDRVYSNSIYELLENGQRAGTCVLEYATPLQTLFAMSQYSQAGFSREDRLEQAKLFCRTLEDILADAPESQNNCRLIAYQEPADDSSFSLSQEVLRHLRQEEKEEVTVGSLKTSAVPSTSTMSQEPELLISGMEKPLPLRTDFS

[12] = target: Tyrosine-protein phosphatase non-receptor type 11 (Homo sapiens, UniProt Q06124); assay: Inhibition of SHP2 1-525 mutant (unknown origin)
[13] = target: Tyrosine-protein phosphatase non-receptor type 11 (Homo sapiens, UniProt Q06124, Q257L/T253M); assay: Inhibition of SHP2 T253M/Q257L mutant (unknown origin)
Sequence of Tyrosine-protein phosphatase non-receptor type 11 (Homo sapiens, UniProt Q06124, Q257L/T253M) (Q06124 2-593 T253M/Q257L limits assumed): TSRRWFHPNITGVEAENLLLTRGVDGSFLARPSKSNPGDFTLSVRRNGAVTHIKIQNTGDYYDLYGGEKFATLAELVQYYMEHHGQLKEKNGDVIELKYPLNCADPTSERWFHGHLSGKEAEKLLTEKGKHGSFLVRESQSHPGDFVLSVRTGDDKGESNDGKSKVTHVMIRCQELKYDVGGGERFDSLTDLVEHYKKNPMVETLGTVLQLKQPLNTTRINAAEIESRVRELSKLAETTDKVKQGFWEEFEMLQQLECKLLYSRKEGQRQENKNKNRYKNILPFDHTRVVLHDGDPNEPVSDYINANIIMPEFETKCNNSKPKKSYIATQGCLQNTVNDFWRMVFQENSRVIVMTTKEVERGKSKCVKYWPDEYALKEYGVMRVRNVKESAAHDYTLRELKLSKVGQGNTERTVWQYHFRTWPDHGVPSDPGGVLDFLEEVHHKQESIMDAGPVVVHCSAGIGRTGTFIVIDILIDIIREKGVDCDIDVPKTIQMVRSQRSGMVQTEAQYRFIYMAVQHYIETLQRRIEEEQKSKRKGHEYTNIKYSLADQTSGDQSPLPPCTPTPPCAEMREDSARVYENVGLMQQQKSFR

[14] = target: T2, Tyrosine-protein phosphatase non-receptor type 11; assay: Inhibition of SHP2 (unknown origin) at 100 mg/mL
[15] = target: Tyrosine-protein phosphatase non-receptor type 11 (Homo sapiens, UniProt Q06124, E76K); assay: Inhibition of SHP2 (unknown origin) E76K mutant
Sequence of Tyrosine-protein phosphatase non-receptor type 11 (Homo sapiens, UniProt Q06124, E76K) (Q06124 2-593 E76K limits assumed): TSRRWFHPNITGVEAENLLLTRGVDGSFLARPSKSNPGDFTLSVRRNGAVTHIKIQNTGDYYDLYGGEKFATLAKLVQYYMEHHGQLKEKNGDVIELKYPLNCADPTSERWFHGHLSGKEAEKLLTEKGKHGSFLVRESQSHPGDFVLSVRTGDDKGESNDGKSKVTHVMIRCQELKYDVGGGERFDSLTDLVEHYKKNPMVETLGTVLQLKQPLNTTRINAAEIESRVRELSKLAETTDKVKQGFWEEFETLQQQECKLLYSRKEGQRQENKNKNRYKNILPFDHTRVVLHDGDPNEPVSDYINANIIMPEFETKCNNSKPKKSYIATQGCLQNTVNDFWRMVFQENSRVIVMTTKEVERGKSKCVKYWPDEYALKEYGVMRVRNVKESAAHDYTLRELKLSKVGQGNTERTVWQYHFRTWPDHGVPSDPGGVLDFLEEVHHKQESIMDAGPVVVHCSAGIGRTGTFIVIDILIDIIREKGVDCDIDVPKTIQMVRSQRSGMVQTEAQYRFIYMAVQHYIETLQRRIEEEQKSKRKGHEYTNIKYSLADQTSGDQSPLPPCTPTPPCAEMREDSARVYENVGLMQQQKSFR

L929 = assay: cells; conditions: Mus musculus
Arginase-1 [16] = target: T5, Arginase-1 (Homo sapiens, UniProt P05089)
T5 sequence (P05089 whole entry): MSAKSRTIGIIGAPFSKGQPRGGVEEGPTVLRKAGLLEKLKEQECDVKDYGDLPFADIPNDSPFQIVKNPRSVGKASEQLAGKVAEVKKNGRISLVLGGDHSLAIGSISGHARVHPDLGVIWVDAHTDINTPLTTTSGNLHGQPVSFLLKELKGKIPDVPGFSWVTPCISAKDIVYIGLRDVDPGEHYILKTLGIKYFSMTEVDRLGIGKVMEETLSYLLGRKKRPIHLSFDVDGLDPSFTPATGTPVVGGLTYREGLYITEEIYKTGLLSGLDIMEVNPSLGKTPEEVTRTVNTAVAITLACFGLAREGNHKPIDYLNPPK

[17] = target: Programmed cell death 1 ligand 1 (Homo sapiens, UniProt Q9NZQ7)
Sequence of Programmed cell death 1 ligand 1 (Q9NZQ7 whole entry): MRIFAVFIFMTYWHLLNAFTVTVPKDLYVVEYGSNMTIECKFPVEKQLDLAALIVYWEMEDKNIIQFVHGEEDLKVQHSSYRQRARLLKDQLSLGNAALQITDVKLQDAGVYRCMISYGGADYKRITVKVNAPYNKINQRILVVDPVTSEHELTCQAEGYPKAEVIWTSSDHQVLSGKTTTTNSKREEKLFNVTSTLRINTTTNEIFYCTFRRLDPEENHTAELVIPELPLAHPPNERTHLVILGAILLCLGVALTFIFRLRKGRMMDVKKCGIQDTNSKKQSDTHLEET

[18] = target: T6, Phosphatidylinositol 3,4,5-trisphosphate 5-phosphatase 1 (Homo sapiens, UniProt Q92835); assay: Inhibition of SHIP1 (unknown origin)
T6 sequence (Q92835 whole entry): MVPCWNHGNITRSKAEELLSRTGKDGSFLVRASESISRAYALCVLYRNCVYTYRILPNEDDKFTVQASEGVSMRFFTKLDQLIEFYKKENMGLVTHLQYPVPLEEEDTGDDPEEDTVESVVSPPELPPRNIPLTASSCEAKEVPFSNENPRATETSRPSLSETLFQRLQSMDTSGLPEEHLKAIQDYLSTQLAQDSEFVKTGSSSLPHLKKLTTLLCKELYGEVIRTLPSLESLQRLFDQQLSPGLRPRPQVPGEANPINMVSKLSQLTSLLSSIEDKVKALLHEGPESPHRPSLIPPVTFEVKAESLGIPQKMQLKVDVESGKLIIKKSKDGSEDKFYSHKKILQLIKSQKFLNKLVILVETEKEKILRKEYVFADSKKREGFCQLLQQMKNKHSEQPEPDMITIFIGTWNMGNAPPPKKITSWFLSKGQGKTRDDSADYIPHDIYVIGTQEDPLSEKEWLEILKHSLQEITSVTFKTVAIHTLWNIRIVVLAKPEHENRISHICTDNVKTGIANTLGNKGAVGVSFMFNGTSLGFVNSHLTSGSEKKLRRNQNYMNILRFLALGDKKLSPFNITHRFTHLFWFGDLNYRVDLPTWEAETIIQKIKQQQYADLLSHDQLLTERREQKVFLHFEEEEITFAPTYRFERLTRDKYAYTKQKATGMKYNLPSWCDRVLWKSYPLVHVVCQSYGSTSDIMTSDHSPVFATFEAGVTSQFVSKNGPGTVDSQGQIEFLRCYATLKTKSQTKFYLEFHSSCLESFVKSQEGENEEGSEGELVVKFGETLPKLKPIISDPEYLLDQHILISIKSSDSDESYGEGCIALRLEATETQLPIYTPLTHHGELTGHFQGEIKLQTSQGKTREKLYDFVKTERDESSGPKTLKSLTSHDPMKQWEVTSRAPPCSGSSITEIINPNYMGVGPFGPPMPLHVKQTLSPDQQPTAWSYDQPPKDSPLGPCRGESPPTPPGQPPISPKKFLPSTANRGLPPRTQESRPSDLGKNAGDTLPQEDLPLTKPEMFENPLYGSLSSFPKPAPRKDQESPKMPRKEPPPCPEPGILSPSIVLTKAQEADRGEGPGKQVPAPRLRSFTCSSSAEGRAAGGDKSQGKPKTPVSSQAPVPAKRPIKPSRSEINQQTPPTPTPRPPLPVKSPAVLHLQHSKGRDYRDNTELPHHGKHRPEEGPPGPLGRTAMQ

[19] = target: T4, Stimulator of interferon genes protein; assay: Binding affinity to human STING assessed as dissociation constant by surface plasmon resonance
[20] = target: Tyrosine-protein kinase BTK (Homo sapiens, UniProt Q06187)
Sequence of Tyrosine-protein kinase BTK (Q06187 whole entry): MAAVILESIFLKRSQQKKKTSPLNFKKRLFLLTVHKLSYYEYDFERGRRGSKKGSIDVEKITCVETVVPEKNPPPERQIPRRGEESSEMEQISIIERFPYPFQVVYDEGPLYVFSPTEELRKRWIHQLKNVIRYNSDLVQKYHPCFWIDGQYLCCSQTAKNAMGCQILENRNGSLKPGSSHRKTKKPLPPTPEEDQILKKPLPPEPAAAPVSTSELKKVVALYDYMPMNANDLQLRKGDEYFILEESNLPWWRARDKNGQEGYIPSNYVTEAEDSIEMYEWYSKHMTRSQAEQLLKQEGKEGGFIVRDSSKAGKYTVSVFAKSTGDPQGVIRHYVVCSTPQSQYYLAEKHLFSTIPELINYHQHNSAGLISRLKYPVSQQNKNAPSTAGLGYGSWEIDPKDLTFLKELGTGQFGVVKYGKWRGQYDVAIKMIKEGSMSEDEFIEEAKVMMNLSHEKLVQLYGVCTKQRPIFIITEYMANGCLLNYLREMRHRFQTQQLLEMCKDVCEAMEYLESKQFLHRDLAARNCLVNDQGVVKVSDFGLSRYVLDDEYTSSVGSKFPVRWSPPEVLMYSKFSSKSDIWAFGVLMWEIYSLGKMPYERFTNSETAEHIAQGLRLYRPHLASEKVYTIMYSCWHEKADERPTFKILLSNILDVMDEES

Arginase-1 [21] = target: T5, Arginase-1; assay: Inhibition of recombinant human ARG1 expressed in Escherichia coli using L-arginine hydrochloride as substrate incubated for 1 hr by colorimetric assay
[22] = target: T1, Arginase-2, mitochondrial; assay: Inhibition of recombinant human ARG2 expressed in Escherichia coli using L-arginine hydrochloride as substrate incubated for 1 hr by colorimetric assay
Arginase-1 [23] = target: T7, Arginase-1 (Mus musculus, UniProt Q61176); assay: Inhibition of mouse ARG1
T7 sequence (Q61176 whole entry): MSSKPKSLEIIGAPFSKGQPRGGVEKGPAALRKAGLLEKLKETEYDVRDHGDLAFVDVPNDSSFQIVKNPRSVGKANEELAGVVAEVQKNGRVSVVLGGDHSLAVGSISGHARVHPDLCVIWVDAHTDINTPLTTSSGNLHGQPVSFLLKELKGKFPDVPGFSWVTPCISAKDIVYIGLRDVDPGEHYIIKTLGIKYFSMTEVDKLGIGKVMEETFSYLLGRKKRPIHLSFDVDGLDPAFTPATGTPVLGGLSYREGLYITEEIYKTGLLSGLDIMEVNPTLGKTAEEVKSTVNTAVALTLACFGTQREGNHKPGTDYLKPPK

Nc1nc(-n2cccn2)nc(-n2cccn2)c1Br [PBF-509]
Ki [1]: 8.2 nM

N=C(NO)NCC[C@H](N)C(=O)O [NOR-NOHA]
IC50 [2]: 51 nM

O=C1Nc2cc(S(=O)(=O)O)ccc2C1/N=N/c1ccccc1[N+](=O)[O-] (stereo not given)
IC50 [3]: 47000 nM | IC50 [4]: 47000 nM

Cn1cc(-c2cn(CC(=O)Nc3nc4ccccc4s3)nn2)c2cc(C(=O)O)c(O)cc21
IC50 [5]: 2100 nM | IC50 [6]: 15700 nM | IC50 [4]: 5500 nM

CCC[C@H](C)Oc1nc(N)c2[nH]c(=O)n(CCCCCN3CCCCC3)c2n1 [GSK-2245035]
pEC50 [7]: 9.3 | pEC50 [8]: 6.5

C[C@@H]1OCC2(CCN(c3nc(N)c(Sc4cccnc4C(F)(F)F)c(=O)n3O)CC2)[C@@H]1N
IC50 [9]: 23 nM | IC50 [10]: 23 nM

CCn1nc(C)cc1C(=O)/C=C1\Nc2cc(C(N)=O)cc(CCCN3CCOCC3)c2N1C/C=C/CN1/C(=C/C(=O)c2cc(C)nn2CC)Nc2cc(C(N)=O)cc(OC)c21
EC50 [11]: 130 nM

CCOC(=O)c1ccc(N2NC(c3ccc([N+](=O)[O-])cc3)/C(=N/Nc3ccc(S(=O)(=O)O)cc3)C2=O)cc1 (stereo not given)
IC50 [5]: 19000 nM | IC50 [6]: 1800 nM | IC50 [4]: 630 nM

COc1cccc(-c2nnc3n(Cc4ccccc4Cl)c(=O)c4ccccc4n23)c1O
IC50 [12]: 60000 nM | IC50 [13]: 60000 nM

COC(=O)c1cccc(N/N=C2\C(=O)Nc3ccc(S(=O)(=O)NCc4ccc(F)cc4)cc32)c1
IC50 [14]: > 100000 nM

CCOc1cc(O)c(C(=O)/C=C/c2ccc(Cl)cc2Cl)cc1CN1CCC=C(C2C(=O)Nc3ccccc32)C1 (stereo not given)
IC50 [9]: 9.8 nM | IC50 [15]: 7670 nM

NC1=NC2C(N=CN2[C@@H]2O[C@@H]3COP(=O)(O)O[C@H]4[C@@H](O)[C@H](N5C=NC6C(=O)NC(N)=NC65)O[C@@H]4COP(=O)(O)O[C@H]3[C@H]2O)C(=O)N1 (stereo not given in full)
EC50 (L929): > 500 nM

N[C@@H](CSCCB(O)O)C(=O)O
IC50 (Arginase-1 [16]): 270 nM | IC50 [2]: 30 nM

O=C1/C(=N\Nc2ccc(S(=O)(=O)O)cc2)C(c2ccc([N+](=O)[O-])cc2)NN1c1ccccc1 (stereo not given)
IC50 [5]: 14500 nM | IC50 [6]: 30000 nM | IC50 [4]: 30000 nM

O=S(=O)(O)c1ccc2cc(/N=N/c3cc(S(=O)(=O)O)c4cccnc4c3O)ccc2c1
IC50 [5]: 14300 nM | IC50 [6]: 335 nM

N#Cc1cncc(COc2cc(OC3CCc4c(-c5ccccc5)cccc43)c(Cl)cc2CN[C@@H](CO)C(=O)O)c1 (stereo not given in full)
IC50 [17]: < 100 nM

N[C@@H](CCCCB(O)O)C(=O)O
IC50 (Arginase-1 [16]): 5 nM | IC50 [2]: 8.5 nM

CC(C)CCC[C@@H](C)[C@H]1CC[C@H]2[C@]3(C)CC[C@H]4C[C@H](N)CC[C@]4(C)[C@H]3CC[C@@]21C
IC50 [18]: 2500 nM

Cc1nc(N2CCC(C)(N)CC2)c(CO)nc1-c1cccc(Cl)c1Cl
IC50 [10]: 71 nM

COc1c(O)cc2oc3cc(O)c(CC=C(C)C)c(O)c3c(=O)c2c1CC=C(C)C [MANGOSTIN]
Kd [19]: 137000 nM

Cc1c(-c2c(F)cc(C(N)=O)c3[nH]c4c(c23)CC[C@H](C(C)(C)O)C4)cccc1N1C(=O)c2cccc(F)c2C(C)C1=O (stereo not given in full)
IC50 [20]: 0.5 nM

NC(CCCCB(O)O)(C(=O)O)C1CCN(Cc2ccc(Cl)cc2Cl)CC1 (stereo not given)
IC50 (Arginase-1 [21]): 86 nM | IC50 [22]: 296 nM

N=C(NO)NCCC[C@H](N)C(=O)O
IC50 (Arginase-1 [16]): 3600 nM | IC50 [2]: 1600 nM | IC50 (Arginase-1 [21]): 150 nM

OC[C@H]1O[C@H](Oc2cc(/C=C/c3cc(O)cc(O)c3)ccc2O)[C@H](O)[C@@H](O)[C@@H]1O
IC50 (Arginase-1 [23]): 11200 nM

O=C1Nc2ccc(S(=O)(=O)NCc3ccc(F)cc3)cc2/C1=N/Nc1cccc(C(=O)O)c1
IC50 [5]: 1690 nM

N[C@](CCCCB(O)O)(CCN1CCCCC1)C(=O)O
IC50 (Arginase-1 [21]): 509 nM

N[C@@](CCCCB(O)O)(C(=O)O)C1CCN(Cc2ccc(Cl)c(Cl)c2)CC1
IC50 (Arginase-1 [21]): 200 nM | IC50 [22]: 290 nM
